Laboratory results from patent publication US6225478A, “Iridoid derivatives and neovascularization inhibitors containing the same as active ingredient” (Tsumura & Co., priority 1999, dated 2001).
Like-named read-outs stand apart in the source and are kept apart here.

Key:
HUFEC = assay: Cell Migration Assay (CMA) Test, inhibitory rate with control (-) correction; assay type: cell-based, human; conditions: 125 μl of 0.32 mM sample solution in 4.0 ml medium, 80% or more = remarkable; for inhibition at 320 µM (stock): Homo sapiens, 24 h
Method in brief: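 Confluent HUFEC monolayers were scratch-wounded, then cultured 24 h at 37 °C, 5% CO2 in M199 (2+) medium with compound added as 125 μl of a 0.32 mM solution (3.2% DMSO) per 4 ml. Giemsa-stained cells migrating into 1 mm×1 mm blocks counted; inhibition % calculated relative to control (+) and control (−) wells.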

[1] = tested on: human umbilical-vein endothelial cells (HUVEC); assay: Tube Formation Assay (TFA) Test, HUVEC in collagen gel; assay type: cell-based; conditions: for inhibition at 320 µM (stock) / inhibition at 1 µg/mL / inhibition at 10 µg/mL: Homo sapiens, HUVEC; for inhibition at 320 µM (stock) / TFA (inhibition rate, %): Tables 75-83, 0.32 mM sample solution, method as for Compounds 1 through 60; for inhibition at 320 µM (stock): read-out: TFA Inhibition rate (%); for inhibition at 1 µg/mL / inhibition at 10 µg/mL: 20 h, read-out: TFA (inhibition rate, %)
Method in brief: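 Inhibition rate (%) of tube formation is computed from tube lengths against control (+) and control (-), measured after 20 h at 37 °C in M-199 with 20% FCS, 30 ng/ml b-FGF and 0.1 μM PMA. Samples were applied to HUVEC on collagen and covered by a second collagen layer (double-layer gel).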

[2] = tested on: human umbilical-vein endothelial cells (HUVEC); assay: Cell Migration Assay (CMA) Test, HUVEC (% relative to control); assay type: cell-based; conditions: Homo sapiens, HUVEC
Procedure: Furthermore, the sample liquids of compounds used in the CPA and CMA tests were prepared in the manner described below. Firstly, after weighing out each compound, a calculated amount of DMSO was added. After dissolving the compound in the DMSO, phosphate buffered physiological saline (PBS (-)) was added to bring the sample concentration to 1 mg/ml in PBS (-). The amount of DMSO used to dissolve the compounds was adjusted in advance to that the concentration of DMSO at that time was 5%. The resulting liquids were diluted 10-fold with 5% DMSO-PBS (-) solution to prepare sample solutions having a concentration of 0.1 mg/ml. In the TFA test, 320 μl of the prepared 1 mg/ml sample solutions were removed followed by addition of 680 μl of PBS (-) to prepare samples having a concentration of […]. Moreover, 100 μl of this solution was removed followed by addition of 900 μl of PBS (-) to dilute 10-fold and prepare samples having a concentration of 1 μg/ml. P [Cell Proliferation Assay (CPA) Test]
After disseminating the 7th subculture of HUVEC obtained from the first generation in the same manner as above at 4 ml/well (3.0×10^5 cells/well) in a collagen-coated 6-well plate (NUNC), the cells were cultured for 48 hours at 37° C. in the presence of 5% CO2. The cells reached nearly a completely confluent state as a result of this culturing.
A double-edged, disposable razor blade was divided into four sections, of which one of those sections was pinched between a pair of forceps. Using this piece of razor blade, the cell surface in the above confluent state was scraped off. Two areas of the cell surface were scraped off in each well.
After washing the surface of the wells from which the cells had been scraped off with medium, 4.0 ml of fresh M199 (2+) medium were added followed by addition of 40 μl or 4 μl of sample solution (1 mg/ml). The cells were cultured for 24 hours at 37° C. in the presence of 5% CO2. After discarding the culture liquid, the cells were fixed for 30 minutes with methanol. Next, after staining the cells for 4 hours with Giemsa stain, the plates were washed with tap water and air dried.
Measurement of cell migration was performed by microscopically counting the number of cells that had newly migrated within the range of a 1 mm×1 mm block. […] The total number of cells counted in blocks 1 through 5 were then totaled to determine the overall total number of cells. Four fields were counted for each well.
Evaluation was performed determining the cell migration (%) according to the following formula.
Cell migration rate=number of migrating cells to which sample was added×100/number of migrating of control (+)
Control (+) indicates the number of migrating cells in the control well containing M199 (2+).

Compound | inhibition at 320 µM (stock) (HUFEC) [%] | inhibition at 320 µM (stock) [1] [%] | also measured
COC(=O)C1=CO[C@@H](OC(=O)Nc2c(F)cccc2F)[C@H]2[C@@H]1CC[C@@H]2C [I-276] | 5.7 | 8.2 | –
COC(=O)C1=CO[C@@H](OC(=O)Nc2cccc(C(F)(F)F)c2)[C@H]2[C@@H]1CC[C@@H]2C [I-277] | 12.7 | 84.4 | –
CNC(=O)O[C@@H]1OC=C(C)[C@H]2CC[C@H](C)[C@@H]12 [I-278] | 125 | 20.2 | –
CCOC(=O)C1=COC(OC(=O)NC)C2C1CC1OC12CO (stereo not shown) [I-279] | 45.1 | 13.2 | –
CNC(=O)O[C@@H]1OC=C(C(=O)OC)[C@H]2CC[C@@H](C)[C@@H]12 [I-280] | 72.4 | 14.9 | –
CNC(=O)O[C@@H]1OC=C(C(=O)O)[C@H]2CC[C@@H](C)[C@@H]12 [I-281] | 27.9 | 31.1 | –
CNC(=O)O[C@@H]1OC=C(C(=O)N2CCN(CCO)CC2)[C@H]2CC[C@@H](C)[C@@H]12 [I-282] | 5.8 | 6 | –
CNC(=O)O[C@@H]1OC=C(C)[C@H]2CC[C@@H](C)[C@@H]12 [I-283] | 9.1 | 11 | –
COC(=O)C1=CO[C@@H](OC(=S)N(C)C)[C@H]2[C@@H]1C[C@@H]1O[C@]21C [I-284] | 32.5 | 23.1 | –
COC(=O)C1=CO[C@H](OC(=S)N(C)C)[C@H]2[C@@H]1C[C@@H]1O[C@]21C [I-285] | 6.5 | 7.7 | –
CNC(=O)OCC1=CC[C@@H]2C(C(=O)OC)=CO[C@@H](OC(=O)NC)[C@H]12 [I-287] | 35.2 | 30.1 | –
COC(=O)C1=CO[C@@H](OC(=O)NCCCl)[C@@H]2C(COC(=O)NCCCl)=CC[C@H]12 [I-288] | 15.9 | 2.4 | –
COC(=O)C1=COC[C@H]2[C@@H]1C[C@@H]1O[C@@]12CO [I-289] | 9.4 | 17.1 | –
CNC(=O)OC[C@]12O[C@H]1C[C@@H]1C(C(=O)OC)=COC[C@@H]12 [I-290] | 51.5 | 13.5 | –
COC(=O)C1=COC[C@H]2[C@@H]1C[C@@H]1O[C@@]12COC(=O)NCCCl [I-291] | 7 | 44.5 | –
COC(=O)C1=COC[C@@H]2C(CSc3nc4ccccc4s3)=CC[C@H]12 [I-292] | 57.9 | 23.5 | –
COC(=O)C1=COC[C@@H]2C(C(=O)N3CCN(CCO)CC3)=CC[C@H]12 [I-293] | 69.3 | 11.2 | –
CCCCCCC1CC[C@@H]2C(C(=O)OC)=COC[C@H]12 (stereo partly shown) [I-294] | 4.5 | 7.8 | –
CNC(=O)OCC1=CC[C@@H]2C(C(=O)OC)=COC[C@H]12 [I-295] | 5.6 | 7.9 | –
COC(=O)C1=COC[C@@H]2C(COC(=O)NCCCl)=CC[C@H]12 [I-296] | 19.9 | 21.3 | –

Compound | inhibition at 320 µM (stock) (HUFEC) [%] | inhibition at 320 µM (stock) [1] [%] | also measured
COC(=O)C1=COC[C@@H]2C(COC(=O)NCCCl)CC[C@H]12 (stereo partly shown) [I-297] | 15.2 | 11.2 | –
CCCCCC[C@]12O[C@H]1C[C@@H]1C(C(=O)OC)=COC[C@@H]12 [I-298] | 7.8 | 9.5 | –
CCCCCCC1=CC[C@@H]2C(C(=O)OC)=CO[C@@H](OC(=O)NC)[C@H]12 [I-299] | 5.9 | 8.8 | –
CCCCCCC1CC[C@@H]2C(C(=O)OC)=CO[C@@H](OC(=O)NC)[C@H]12 (stereo partly shown) [I-300] | 8 | 14.6 | –
O=C(C1=COC[C@@H]2C(CO)=CC[C@H]12)N1CCN(CCO)CC1 [I-301] | 56 | 15.9 | –
COC(=O)C1=COC[C@@H]2C(C)=CC[C@H]12 [I-302] | 26.6 | 12.5 | –
COC(=O)C1=COC[C@H]2[C@@H]1C[C@@H]1O[C@@]12C [I-303] | 6.1 | 30.6 | –
C[C@]12O[C@H]1C[C@@H]1C(C(=O)N3CCN(CCO)CC3)=COC[C@@H]12 [I-304] | 9.4 | 11.2 | –
C[C@@H]1CC[C@@H]2C(C(=O)N3CCN(CCO)CC3)=COC[C@H]12 [I-305] | 7.6 | 23.1 | –
CNC(=O)OCCN1CCN(C(=O)C2=COC[C@@H]3[C@H](C)CC[C@H]23)CC1 [I-306] | 25.1 | 22.6 | –
CNC(=O)O[C@@H]1OC=C(C(=O)O)[C@H]2CC=C(C)[C@@H]12 [I-307] | 52.5 | – | TFA (inhibition rate, %) [1]: 50.2%
CC1=CC[C@@H]2C(C(=O)O)=CO[C@@H](OC(=O)Nc3ccc(F)cc3F)[C@H]12 [I-308] | 32.1 | 23.2 | –
CNC(=O)O[C@@H]1OC=C(C(=O)N2CCN(CCO)CC2)[C@H]2CC=C(C)[C@@H]12 [I-309] | 48 | 5.2 | –
CNC(=O)O[C@@H]1OC=C(C(=O)NC)[C@H]2CC=C(C)[C@@H]12 [I-310] | 20.7 | 20.1 | –
CNC(=O)O[C@@H]1OC=C(C(=O)N2C[C@@H](C)O[C@@H](C)C2)[C@H]2CC=C(C)[C@@H]12 [I-311] | 7.6 | 10.7 | –
CCOC(=O)C1=CO[C@@H](OC(=O)NC)[C@@H]2C(C)=CC[C@H]12 [I-312] | 34.9 | 41.8 | –
CNC(=O)O[C@@H]1OC=C(C(=O)O)[C@H]2CC=C(C)[C@@H]12 [I-313] | – | – | CMA Inhibition rate (%) (HUFEC; 24 hours): 60.2%; TFA (inhibition rate, %) [1]: 27.0%
CN(C)c1ccc(O)c2c1C[C@H]1C[C@H]3[C@H](N(C)C)C(O)=C(C(N)=O)C(=O)[C@@]3(O)C(O)=C1C2=O [Minocycline, reference compound] | – | – | inhibition at 1 µg/mL ([1]; 1 μg/ml, 20 hours, 40% or less judged remarkable): 42.1%; inhibition at 10 µg/mL ([1]; 10 μg/ml, 20 hours, 40% or less judged remarkable): 56.7%; activity at 1 µg/mL ([2]; 1 μg/ml, 24 hours, 60% or less = remarkable inhibition, read-out: CMA (% relative to control)): 67.3%; activity at 10 µg/mL ([2]; 10 μg/ml, 24 hours, 60% or less = remarkable inhibition, read-out: CMA (% relative to control)): 51.6%
CNC(=O)O[C@@H]1OC=C(C(=O)O)[C@H]2C[C@@H]3O[C@]3(C)[C@H]12 [compound 2, sodium (1S,4aS,6S,7R,7aR)-6,7-epoxy-1,4a,5,6,7,7a-hexahydro-7-methyl-1-(methylcarbamoyloxy) cyclopenta [c]-pyrane-4-carboxylic acid] | – | – | inhibition at 1 µg/mL [1]: 69.1%; inhibition at 10 µg/mL [1]: 56.9%; activity at 1 µg/mL ([2]; 24 h, read-out: CMA (% relative to control), 1 μg/ml, 60% or less = remarkable inhibition): 88.4%; activity at 10 µg/mL ([2]; 24 h, read-out: CMA (% relative to control), 10 μg/ml, 60% or less = remarkable inhibition): 95.8%
